# Laboratory results as given in patent US11725036B2, “Modified lipidated relaxin B chain peptides and their therapeutic use” (Sanofi, priority 2018, dated 2023).
# Starred links: 1 amine or outer side, 2 acyl side, 3 side chain; linkers in the order of their positions; H or OH if unused. Non-standard residues stand in square brackets, D forms with d. Residues, ends and D or L forms follow the SMILES beside them. Groups on a side chain read outwards from the residue. *: point of attachment. X13 = CCCCCCCCCCCCCCCC(=O)N[C@@H](CCC(=O)N[C@@H](CCC(=O)N[C@@H](CCC(=O)N[C@@H](CCC(=O)NCCCOCCOCCOCCCNC(=O)CCC(=O)NCCCOCCOCCOCCCNC(=O)CCC(=O)NCCCOCCOCCOCCCN*)C(=O)O)C(=O)O)C(=O)O)C(=O)O; X1 = CCCCCCCCCCCCCCCC(=O)N[C@@H](CCC(=O)N[C@@H](CCC(=O)N[C@@H](CCC(=O)NCCCOCCOCCOCCCNC(=O)CCC(=O)NCCCOCCOCCOCCCNC(=O)CCC(=O)NCCCOCCOCCOCCCN*)C(=O)O)C(=O)O)C(=O)O; Suc = O=C(CCC(=O)[*:2])[*:1]; Aib = CC(C)(N)C(=O)O
# Biological target: T1, RXFP1 (Homo sapiens, UniProt Q9HBX9)
# T1 construct: OVCAR5 cells expressing endogenous RXFP1; endogenous in cells; host or cells: OVCAR5
# T1 sequence (Q9HBX9 1-757): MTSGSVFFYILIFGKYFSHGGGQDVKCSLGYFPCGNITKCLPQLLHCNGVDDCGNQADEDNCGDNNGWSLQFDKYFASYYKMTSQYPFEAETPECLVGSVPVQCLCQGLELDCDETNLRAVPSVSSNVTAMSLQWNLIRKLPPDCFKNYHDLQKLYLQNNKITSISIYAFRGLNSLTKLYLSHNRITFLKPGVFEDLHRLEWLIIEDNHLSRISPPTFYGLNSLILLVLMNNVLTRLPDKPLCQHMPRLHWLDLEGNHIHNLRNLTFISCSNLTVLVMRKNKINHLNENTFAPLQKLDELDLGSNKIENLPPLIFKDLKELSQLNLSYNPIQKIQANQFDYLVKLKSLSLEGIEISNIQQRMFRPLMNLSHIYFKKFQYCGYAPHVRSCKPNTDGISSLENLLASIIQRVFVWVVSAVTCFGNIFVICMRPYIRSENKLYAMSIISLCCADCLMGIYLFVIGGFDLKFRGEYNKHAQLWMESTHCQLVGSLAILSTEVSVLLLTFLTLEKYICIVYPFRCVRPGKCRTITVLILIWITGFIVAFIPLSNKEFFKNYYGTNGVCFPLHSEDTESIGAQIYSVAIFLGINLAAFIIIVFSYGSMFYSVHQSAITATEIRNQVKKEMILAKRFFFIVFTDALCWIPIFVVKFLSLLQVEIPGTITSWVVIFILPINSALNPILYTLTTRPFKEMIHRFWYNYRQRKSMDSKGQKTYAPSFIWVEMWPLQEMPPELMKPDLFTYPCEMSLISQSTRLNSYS
# Experiment: OVCAR5 cAMP assay (HTRF)
# Assay type: cell-based
# Conditions: for EC50: OVCAR 5 cells expressing endogenous RXFP1, cAMP readout; for Emax: OVCAR 5 cells, maximal cAMP relative to H2-relaxin
# From the text: OVCAR5 cells expressing endogenous RXFP1 were used to test RXP1 agonist properties of peptides of the invention, and in particular of the peptides of sequence SEQ ID NO: 1-97.
# Since RXFP1 is a Gs coupled GPCR, cAMP was used as readout of RXFP1 activation.
# Isobutyl Methyl Xanthine (IBMX) was used to inhibit phosphodiesterase activity facilitating cAMP measurements. HTRF (Homogenous Time Resolved Fluorescence) technology was used to detect cAMP due to its great sensitivity.
# In summary, OVCAR5 were grown in regular medium (RPMI) containing 10% fetal calf serum (FCS) and 1% antibiotics (penicillin/streptomycin).
# Before the experiments, cells were detached with accutase and incubated for 40 minutes at 37° C. with 1 mM (3-isobutyl-1-methylxanthine) IBMX.
# Cells were then distributed in 384 black well plates containing increasing concentrations of the different peptides in a fix volume of medium (without FCS).
# After an incubation of 30 min at 37° C. in an humid incubator in 5% CO2, the reaction was stopped by adding a fixed volume of a solution containing a lysis buffer and cAMP-D2 (cAMP labeled with the dye d2) and the anti cAMP antibody linked to Europium and used for cAMP detection.
# Readout of the experiment were performed on a fluorimeter allowing HTRF measurement. Activation curves were generated by plotting the intracellular value of cAMP versus log 10 of the compound concentration.
# The 50% activation concentration (EC50) was calculated by nonlinear regression using the sigmoidal dose-response (variable slope) equation with Prism 5 software.
# Emax % was determined as the maximal intracellular value of cAMP for test compound (upper limit of cAMP vs concentration curve) divided by the maximal intracellular value of cAMP for H2-relaxin determined in the same test occasion multiplied by 100. Emax %=100×[cAMPtest cpd]/[cAMPH2-Rlx]
Structure (SMILES),EC50 [nM],Emax [%]
CCCCCCCCCCCCCCCC(=O)N[C@@H](CCC(=O)N[C@@H](CCC(=O)N[C@@H](CCC(=O)NCCCOCCOCCOCCCNC(=O)CCC(=O)NCCCOCCOCCOCCCNC(=O)CCC(=O)NCCCOCCOCCOCCCNC(=O)CCC(=O)NCCCC[C@H](NC(=O)CNC(=O)[C@H](CCC(=O)O)NC(=O)C(C)(C)NC(=O)C(C)(C)NC(=O)[C@@H](NC(=O)[C@H](CCCCNC(C)=O)NC(=O)[C@H](C)NC(=O)[C@H](CCCNC(=N)N)NC(=O)[C@@H](NC(=O)[C@H](CCCCN)NC(=O)[C@H](CCC(=O)O)NC(=O)[C@H](CCCNC(=N)N)NC(=O)CNC(=O)[C@H](CCC(=O)O)NC(=O)[C@H](CC(C)C)NC(C)=O)C(C)C)[C@@H](C)CC)C(=O)N[C@@H](CO)C(=O)N[C@H](C(=O)N[C@@H](Cc1ccccc1)C(=O)N[C@@H](CO)C(=O)NC(C)(C)C(=O)N[C@@H](CCCNC(=N)N)C(=O)N[C@@H](C)C(=O)N[C@@H](CCCCNC(C)=O)C(N)=O)[C@@H](C)O)C(=O)O)C(=O)O)C(=O)O [compound 2] (Ac-LEGREKVRAK(Ac)I[Aib][Aib]EGK([Suc-X1])STFS[Aib]RAK(Ac)-NH2),2.4,99
CCCCCCCCCCCCCCCC(=O)N[C@@H](CCC(=O)N[C@@H](CCC(=O)N[C@@H](CCC(=O)NCCCOCCOCCOCCCNC(=O)CCC(=O)NCCCOCCOCCOCCCNC(=O)CCC(=O)NCCCOCCOCCOCCCNC(=O)CCC(=O)NCCCC[C@H](NC(=O)CNC(=O)[C@H](CCC(=O)O)NC(=O)C(C)(C)NC(=O)C(C)(C)NC(=O)[C@@H](NC(=O)[C@H](CCCCNC(C)=O)NC(=O)[C@H](C)NC(=O)[C@H](CCCNC(=N)N)NC(=O)[C@@H](NC(=O)[C@H](CCCCN)NC(=O)[C@H](CCC(=O)O)NC(=O)[C@H](CCCNC(=N)N)NC(=O)CNC(=O)[C@H](CCC(=O)O)NC(=O)[C@H](CC(C)C)NC(C)=O)C(C)C)[C@@H](C)CC)C(=O)N[C@@H](CO)C(=O)N[C@H](C(=O)N[C@@H](Cc1c[nH]c2ccccc12)C(=O)N[C@@H](CO)C(=O)NC(C)(C)C(=O)N[C@@H](CCCNC(=N)N)C(=O)N[C@@H](CCCNC(=N)N)C(=O)N[C@@H](CCCCNC(C)=O)C(N)=O)[C@@H](C)O)C(=O)O)C(=O)O)C(=O)O [compound 31] (Ac-LEGREKVRAK(Ac)I[Aib][Aib]EGK([Suc-X1])STWS[Aib]RRK(Ac)-NH2),–,94
CCCCCCCCCCCCCCCC(=O)N[C@@H](CCC(=O)N[C@@H](CCC(=O)N[C@@H](CCC(=O)NCCCOCCOCCOCCCNC(=O)CCC(=O)NCCCOCCOCCOCCCNC(=O)CCC(=O)NCCCOCCOCCOCCCNC(=O)CCC(=O)NCCCC[C@H](NC(=O)CNC(=O)[C@H](CCC(=O)O)NC(=O)C(C)(C)NC(=O)C(C)(C)NC(=O)[C@@H](NC(=O)[C@H](CCCCNC(C)=O)NC(=O)C(C)(C)NC(=O)[C@H](CCCNC(=N)N)NC(=O)[C@@H](NC(=O)[C@H](CCCCN)NC(=O)[C@H](CCC(=O)O)NC(=O)[C@H](CCCNC(=N)N)NC(=O)CNC(=O)[C@H](CCC(=O)O)NC(=O)[C@H](CC(C)C)NC(C)=O)C(C)C)[C@@H](C)CC)C(=O)N[C@@H](CO)C(=O)N[C@H](C(=O)N[C@@H](Cc1c[nH]c2ccccc12)C(=O)N[C@@H](CO)C(=O)NC(C)(C)C(=O)N[C@@H](CCCNC(=N)N)C(=O)N[C@@H](CCCCN)C(=O)N[C@@H](CCCCNC(C)=O)C(N)=O)[C@@H](C)O)C(=O)O)C(=O)O)C(=O)O [compound 82] (Ac-LEGREKVR[Aib]K(Ac)I[Aib][Aib]EGK([Suc-X1])STWS[Aib]RKK(Ac)-NH2),–,95
CCCCCCCCCCCCCCCC(=O)N[C@@H](CCC(=O)N[C@@H](CCC(=O)N[C@@H](CCC(=O)N[C@@H](CCC(=O)NCCCOCCOCCOCCCNC(=O)CCC(=O)NCCCOCCOCCOCCCNC(=O)CCC(=O)NCCCOCCOCCOCCCNC(=O)CCC(=O)NCCCC[C@H](NC(=O)CNC(=O)[C@H](CCC(=O)O)NC(=O)C(C)(C)NC(=O)C(C)(C)NC(=O)[C@@H](NC(=O)[C@H](CCCCNC(C)=O)NC(=O)[C@H](C)NC(=O)[C@H](CCCNC(=N)N)NC(=O)[C@@H](NC(=O)[C@H](CCCCN)NC(=O)[C@H](CCC(=O)O)NC(=O)[C@H](CCCNC(=N)N)NC(=O)CNC(=O)[C@H](CCC(=O)O)NC(=O)[C@H](CC(C)C)NC(C)=O)C(C)C)[C@@H](C)CC)C(=O)N[C@@H](CO)C(=O)N[C@H](C(=O)N[C@@H](Cc1c[nH]c2ccccc12)C(=O)N[C@@H](CO)C(=O)NC(C)(C)C(=O)N[C@@H](CCCNC(=N)N)C(=O)N[C@@H](CCCCN)C(=O)N[C@@H](CCCCNC(C)=O)C(N)=O)[C@@H](C)O)C(=O)O)C(=O)O)C(=O)O)C(=O)O [compound 62] (Ac-LEGREKVRAK(Ac)I[Aib][Aib]EGK([Suc-X13])STWS[Aib]RKK(Ac)-NH2),0.6,98
CCCCCCCCCCCCCCCC(=O)N[C@@H](CCC(=O)N[C@@H](CCC(=O)N[C@@H](CCC(=O)NCCCOCCOCCOCCCNC(=O)CCC(=O)NCCCOCCOCCOCCCNC(=O)CCC(=O)NCCCOCCOCCOCCCNC(=O)CCC(=O)NCCCC[C@H](NC(=O)CNC(=O)[C@H](CCC(=O)O)NC(=O)C(C)(C)NC(=O)C(C)(C)NC(=O)[C@@H](NC(=O)[C@H](CCCCNC(C)=O)NC(=O)[C@H](C)NC(=O)[C@H](CCCNC(=N)N)NC(=O)[C@@H](NC(=O)[C@H](CC(C)C)NC(=O)[C@H](CCC(=O)O)NC(=O)[C@H](CCCNC(=N)N)NC(=O)CNC(=O)[C@H](CCC(=O)O)NC(=O)[C@H](CC(C)C)NC(C)=O)C(C)C)[C@@H](C)CC)C(=O)N[C@@H](CO)C(=O)N[C@H](C(=O)N[C@@H](Cc1c[nH]c2ccccc12)C(=O)N[C@@H](CO)C(=O)NC(C)(C)C(=O)N[C@@H](CCCNC(=N)N)C(=O)N[C@@H](CCCNC(=N)N)C(=O)N[C@@H](CCCCNC(C)=O)C(N)=O)[C@@H](C)O)C(=O)O)C(=O)O)C(=O)O [compound 37] (Ac-LEGRELVRAK(Ac)I[Aib][Aib]EGK([Suc-X1])STWS[Aib]RRK(Ac)-NH2),5.6,98
CCCCCCCCCCCCCCCC(=O)N[C@@H](CCC(=O)N[C@@H](CCC(=O)N[C@@H](CCC(=O)NCCCOCCOCCOCCCNC(=O)CCC(=O)NCCCOCCOCCOCCCNC(=O)CCC(=O)NCCCOCCOCCOCCCNC(=O)CCC(=O)NCCCC[C@H](NC(=O)CNC(=O)[C@H](CCC(=O)O)NC(=O)C(C)(C)NC(=O)C(C)(C)NC(=O)[C@@H](NC(=O)[C@H](CCCCNC(C)=O)NC(=O)[C@H](C)NC(=O)[C@H](CCCNC(=N)N)NC(=O)[C@@H](NC(=O)[C@H](CCCCN)NC(=O)[C@H](CCC(=O)O)NC(=O)[C@H](CCCNC(=N)N)NC(=O)CNC(=O)[C@H](CCC(=O)O)NC(=O)[C@H](CC(C)C)NC(C)=O)C(C)C)[C@@H](C)CC)C(=O)N[C@@H](CO)C(=O)N[C@@H](CCC(N)=O)C(=O)N[C@@H](Cc1c[nH]c2ccccc12)C(=O)N[C@@H](CO)C(=O)NC(C)(C)C(=O)N[C@@H](CCCNC(=N)N)C(=O)N[C@@H](CCCCN)C(=O)N[C@@H](CCCCNC(C)=O)C(N)=O)C(=O)O)C(=O)O)C(=O)O [compound 63] (Ac-LEGREKVRAK(Ac)I[Aib][Aib]EGK([Suc-X1])SQWS[Aib]RKK(Ac)-NH2),1.45,97
CCCCCCCCCCCCCCCC(=O)N[C@@H](CCC(=O)N[C@@H](CCC(=O)N[C@@H](CCC(=O)NCCCOCCOCCOCCCNC(=O)CCC(=O)NCCCOCCOCCOCCCNC(=O)CCC(=O)NCCCOCCOCCOCCCNC(=O)CCC(=O)NCCCC[C@H](NC(=O)CNC(=O)[C@H](CCC(=O)O)NC(=O)C(C)(C)NC(=O)C(C)(C)NC(=O)[C@@H](NC(=O)[C@H](CCCCNC(C)=O)NC(=O)[C@H](C)NC(=O)[C@H](CCCNC(=N)N)NC(=O)[C@@H](NC(=O)[C@H](CCCCN)NC(=O)[C@H](CCC(=O)O)NC(=O)[C@H](CCCNC(=N)N)NC(=O)CNC(=O)[C@H](CCC(=O)O)NC(=O)[C@H](CC(C)C)NC(C)=O)C(C)C)[C@@H](C)CC)C(=O)N[C@@H](CO)C(=O)N[C@H](C(=O)N[C@@H](Cc1c[nH]c2ccccc12)C(=O)NC(C)(C)C(=O)N[C@@H](CCCCN)C(=O)N[C@@H](CCCNC(=N)N)C(=O)N[C@@H](C)C(=O)N[C@@H](CCCCNC(C)=O)C(N)=O)[C@@H](C)O)C(=O)O)C(=O)O)C(=O)O [compound 35] (Ac-LEGREKVRAK(Ac)I[Aib][Aib]EGK([Suc-X1])STW[Aib]KRAK(Ac)-NH2),2.33,91
